Measurements: patent US5621133A (priority 1995, dated 1997)
pEC50, pKi: −log10 of the molar value. Where a name gives a salt, the structure may show the parent alone.

Columns and labels:
[1] = molecular target: dopamine D-1 receptor (Rattus norvegicus, UniProt P18901); assay: biochemical; conditions: D-1 Ki, rat caudate, [125I]SCH-23982
Description: The compounds compete with the radiolabeled ligand for occupancy of the receptors and the molar potency of each compound was quantified.
The Ki values are inversely proportional to the affinity of the compound for the receptor.

[2] = tested on: striatal dopamine receptors; assay: Rotation behavior assay of in vivo activity (6-hydroxydopamine lesioned rat rotational model); conditions: for ED50 s.c. (rotation behavior): injected subcutaneously
[3] = molecular target: dopamine D-2 receptor (Rattus norvegicus, UniProt P61169); assay: biochemical; type: binding; conditions: rat caudate, [125I]-p-aminophenylethyl spiroperidol; read-out: D-2 Ki
Sequence of dopamine D-2 receptor (P61169 whole entry): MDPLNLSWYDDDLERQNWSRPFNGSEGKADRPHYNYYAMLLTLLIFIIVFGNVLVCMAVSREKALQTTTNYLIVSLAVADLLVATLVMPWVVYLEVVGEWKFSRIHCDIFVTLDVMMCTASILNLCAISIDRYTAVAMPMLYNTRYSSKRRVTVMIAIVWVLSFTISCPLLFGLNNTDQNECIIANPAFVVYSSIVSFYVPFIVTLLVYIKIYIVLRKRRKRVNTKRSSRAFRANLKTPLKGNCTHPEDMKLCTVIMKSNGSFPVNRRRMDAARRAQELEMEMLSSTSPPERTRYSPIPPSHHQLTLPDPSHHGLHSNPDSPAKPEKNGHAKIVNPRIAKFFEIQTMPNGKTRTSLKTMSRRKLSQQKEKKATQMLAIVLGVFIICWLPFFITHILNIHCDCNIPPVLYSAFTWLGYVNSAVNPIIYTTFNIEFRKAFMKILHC
Description: Homogenized rat caudate was the source of the D-2 receptors. […] The molar affinity of the compound for the receptor binding site was calculated by the same method used for the D-1 receptor assay, assuming a competitive interaction between the compound and the radiolabeled ligand.

[4] = tested on: dopamine D-1 receptor; conditions: for Intrinsic Activity (adenylate cyclase assay): dopamine = 100, goldfish retina or rat striatum; for pEC50: read-out: EC50 (agonist activity in adenylate cyclase assay), tissue from goldfish retina or rat striatum
Description: In order to determine agonist activity, cell-free tissue homogenates are incubated in an ionic buffer solution containing ATP and the compound being evaluated. The tissue was obtained from either goldfish retina or rat striatum.

Sequence of dopamine D-1 receptor (Rattus norvegicus, UniProt P18901) (P18901 whole entry): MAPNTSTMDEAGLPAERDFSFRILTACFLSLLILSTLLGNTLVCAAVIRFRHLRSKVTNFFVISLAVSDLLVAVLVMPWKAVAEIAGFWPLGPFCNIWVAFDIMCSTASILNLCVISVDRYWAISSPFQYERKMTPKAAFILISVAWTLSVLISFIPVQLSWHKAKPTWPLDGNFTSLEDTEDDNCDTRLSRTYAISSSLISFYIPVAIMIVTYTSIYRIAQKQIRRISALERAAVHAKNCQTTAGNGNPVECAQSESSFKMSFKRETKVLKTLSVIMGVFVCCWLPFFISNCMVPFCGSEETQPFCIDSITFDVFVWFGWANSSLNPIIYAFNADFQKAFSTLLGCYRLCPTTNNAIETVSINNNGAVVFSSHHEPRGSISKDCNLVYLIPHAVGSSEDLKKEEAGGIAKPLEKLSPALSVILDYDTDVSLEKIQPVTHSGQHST

| Compound | pKi [1] | pKi [3] | Intrinsic Activity (adenylate cyclase assay) [4] | pEC50 [4] | ED50 s.c. (rotation behavior) [2] | mean rotations over 360 minutes ([2]; dose = 143 micromoles/kg p.o.) | ED50 oral (rotation behavior) [2] | mean rotations over 20 hours ([2]; dose = 143 micromoles/kg p.o.) |
| --- | --- | --- | --- | --- | --- | --- | --- | --- |
| CC(=O)Oc1ccc2c(c1OC(C)=O)CC(c1ccccc1)C=C2CNC(=O)[C@H](C)NC(=O)[C@H](C)N (stereo partly shown) [Example 4, 5,6-Bis(acetoxy)-1-(alanyl-alanyl)aminomethyl-3-phenyl-3,4-dihydronaphthalene Hydrochloride] | – | – | – | – | – | 3329 | – | – |
| C[C@H](N)C(=O)N[C@@H](C)C(=O)NCC1=CC(c2ccccc2)Cc2c1ccc(OC(=O)c1ccccc1)c2OC(=O)c1ccccc1 (stereo partly shown) [Example 15] | – | – | – | – | – | 1760 | – | – |
| CN(C)CC1OC(CC(C)(C)C)Cc2c1ccc(O)c2O (stereo not shown) [Example 220] | 6.39 | 5.51 | 72 | 6.40 | 0.52 µmol/kg | – | – | – |
| Oc1ccc2c(c1O)CC1(CCCCCCCC1)C1=C2CNCC1 [Example 241] | 6.40 | 5.54 | 48 | 6.40 | > 3 µmol/kg | – | – | – |
| NC[C@@H]1O[C@H](CC2CCCCC2)Cc2c1ccc(O)c2O (relative stereo) [Example 88] | 6.89 | 5.82 | 133 | 7.92 | 0.61 µmol/kg | – | 32 µmol/kg | – |
| CC(=O)Oc1ccc2c(c1OC(C)=O)CC(c1ccccc1)C=C2CNC(=O)[C@H](C)N (stereo partly shown) [Example 10] | – | – | – | – | – | 1516 | – | – |
| CCCCCCCC[C@@H]1Cc2c(ccc(O)c2O)[C@H](CN)O1 (relative stereo) [Example 64] | 6.19 | 6.27 | 80 | 6.41 | 58 µmol/kg | – | – | – |
| CSCC[C@H](N)C(=O)NCC1=CC(c2ccccc2)Cc2c1ccc(OC(C)=O)c2OC(C)=O (stereo partly shown) [Example 14] | – | – | – | – | – | 3653 | – | – |
| CC[C@H]1Cc2c(ccc(O)c2O)[C@@H](CN)O1 (relative stereo) [Example 51] | 6.63 | 5.41 | 88 | 6.74 | 7 µmol/kg | – | – | – |
| Oc1ccc2c(c1O)CC1(CCCCCCCCC1)C1=C2CNCC1 [Example 240] | 6.12 | 5.28 | 70 | 6.89 | > 3 µmol/kg | – | – | – |
| Cl.NCC1=CC(c2ccccc2)Cc2c1ccc(OC(=O)c1ccccc1)c2OC(=O)c1ccccc1 (stereo not shown) [Example 16, 1-Aminomethyl-5,6-bis(benzoyloxy)-3-phenyl-3,4-dihydronaphthalene Hydrochloride] | – | – | – | – | – | 4844 | – | – |
| CC(=O)Oc1ccc2c(c1OC(C)=O)CC(c1ccccc1)C=C2CNC(=O)OC(C)OC(C)=O (stereo not shown) [Example 6] | – | – | – | – | – | – | – | 2564 |
| CCCC[C@H]1Cc2c(ccc(O)c2O)[C@@H](CNC)O1 (relative stereo) [Example 135] | 6.74 | 5.80 | 136 | 8.15 | – | – | – | – |
| NC[C@@H]1O[C@H](CC2CCCC2)Cc2c1ccc(O)c2O (relative stereo) [Example 78] | 7.31 | 6.09 | 147 | 7.82 | – | – | – | – |
| CN(C)C[C@@H]1O[C@H](C2(c3ccccc3)CCCCC2)Cc2c1ccc(O)c2O (relative stereo) [Example 229] | 6.59 | 5.44 | 34 | 6.48 | – | – | – | – |
| CNC[C@H]1O[C@@H](c2ccc(F)cc2)Cc2c1ccc(O)c2O (relative stereo) [Example 136] | 7.00 | 5.60 | 133 | 8.30 | – | – | – | – |
| NC[C@H]1O[C@@H](CNC(=O)c2ccco2)Cc2c1ccc(O)c2O (relative stereo) [Example 168] | 4.77 | < 5.00 | 103 | 6.57 | – | – | – | – |
| CN1CCC2=C(C1)c1ccc(O)c(O)c1CC21CCCC1 [Example 211] | 6.24 | < 5.00 | 38 | 7.20 | – | – | – | – |

More lines, main results first:

| pKi [1] | pKi [3] | Intrinsic Activity (adenylate cyclase assay) [4] | pEC50 [4] | Compound | ED50 s.c. (rotation behavior) [2] | mean rotations over 360 minutes ([2]; dose = 143 micromoles/kg p.o.) | ED50 oral (rotation behavior) [2] | mean rotations over 20 hours ([2]; dose = 143 micromoles/kg p.o.) |
| --- | --- | --- | --- | --- | --- | --- | --- | --- |
| 7.52 | < 5.00 | 71 | 6.55 | CN(C)C[C@@H]1O[C@H](C2CCCCC2)Cc2c1ccc(O)c2O (relative stereo) [Example 228] | 0.1 µmol/kg | – | – | – |
| 7.70 | < 5.00 | 94 | 6.43 | CN(C)C[C@@H]1O[C@H](c2ccccc2)Cc2c1ccc(O)c2O (relative stereo) [Example 227] | 0.045 µmol/kg | – | – | – |
| 6.42 | 5.82 | 51 | 7.62 | NC[C@H]1O[C@@H](COc2ccccc2)Cc2c1ccc(O)c2O (relative stereo) [Example 55] | 13.6 µmol/kg | – | – | – |
| 5.40 | 5.80 | – | – | CNCC1OC(CC(C)C)Cc2c1ccc(O)c2O (stereo not shown) [Example 219] | 0.09 µmol/kg | – | – | – |
| 7.42 | 5.82 | 124 | 8.10 | CNC[C@@H]1O[C@H](C(C)(C)C)Cc2c1ccc(O)c2O.Cl [Example 112, [1R,3S]3-t-butyl-5,6-dihydroxy-1-methylaminomethyl-3,4-dihydro-1H-2-benzopyran hydrochloride] | 0.10 µmol/kg | – | 1.0 µmol/kg | – |
| 6.40 | < 5.00 | 89 | 7.18 | CN(C)C[C@@H]1O[C@H](C(C)(C)C)Cc2c1ccc(O)c2O [Example 147] | 0.05 µmol/kg | – | – | – |
| 7.70 | 5.28 | 106 | 7.70 | CC(C)(C)CC1Cc2c(ccc(O)c2O)C(CN)O1.Cl (stereo not shown) [Example 214, 1-Aminomethyl-3-(2,2-dimethylpropyl)-3,4-dihydro-5,6-dihydroxy-1H-2-benzopyran Hydrochloride] | 0.085 µmol/kg | – | – | – |
| 7.05 | < 5.00 | 84 | 7.10 | NCC1OC2(CCCCCCCC2)Cc2c1ccc(O)c2O (stereo not shown) [Example 221] | > 3 µmol/kg | – | – | – |
| 6.82 | 5.80 | – | – | CN1CCC2=C(C1)c1ccc(O)c(O)c1CC21CCCCCCC1 [Example 250] | 0.51 µmol/kg | – | – | – |
| 6.35 | 5.49 | 129 | 8.01 | CNC[C@@H]1O[C@H](CC23CC4CC(CC(C4)C2)C3)Cc2c1ccc(O)c2O (relative stereo) [Example 139] | 0.4 µmol/kg | – | 23 µmol/kg | – |
| 7.70 | 6.10 | 114 | 7.70 | NCC1OC(CC2CCCC2)Cc2c1ccc(O)c2O (stereo not shown) [Example 215] | 0.55 µmol/kg | – | – | – |
| 6.68 | 5.82 | 100 | 7.17 | Oc1ccc2c(c1O)CC1(CCCCC1)C1=C2CNCC1 [Example 205] | 3.4 µmol/kg | – | – | – |
| 8.00 | 5.49 | 87 | 7.40 | CC1([C@@H]2Cc3c(ccc(O)c3O)[C@H](CN)O2)CCCCC1 (relative stereo) [Example 222] | 0.3 µmol/kg | – | – | – |
| 7.77 | 6.00 | 110 | 8.05 | C=CC(C)[C@H]1Cc2c(ccc(O)c2O)[C@@H](CN)O1 (relative stereo) [Example 105] | 0.17 µmol/kg | – | – | – |
| 7.17 | 4.92 | 49 | 7.42 | CNC[C@@H]1O[C@H](C23CC4CC(CC(C4)C2)C3)Cc2c1cc(F)c(O)c2O [Example 145] | 0.31 µmol/kg | – | – | – |
| 8.52 | 5.66 | 157 | 7.29 | CNC[C@@H]1O[C@H](c2ccccc2)Cc2c1ccc(O)c2O [Example 138] | 0.15 µmol/kg | – | – | – |
| 6.15 | 5.60 | 81 | 5.74 | NCC1=CC(c2cccc3ccccc23)Cc2c1ccc(O)c2O (stereo not shown) [Example 41] | – | – | – | – |
| 6.64 | 5.64 | 64 | 6.62 | CNCC1OC2(CCCCCCCC2)Cc2c1ccc(O)c2O (stereo not shown) [Example 224] | – | – | – | – |
| 6.92 | 4.52 | 91 | 7.48 | NCC1=CC(c2cccc(O)c2)Cc2c1ccc(O)c2O (stereo not shown) [Example 38] | – | – | – | – |
| 5.09 | < 5.00 | 61 | 6.11 | Oc1ccc2c(c1O)C[C@@H](c1ccccc1)O[C@H]2[C@H]1CCCN1 [Example 123] | – | – | – | – |
| 6.62 | 5.92 | – | – | CN1CCC2=C(C1)c1ccc(O)c(O)c1CC2C(C)(C)C (stereo not shown) [Example 244] | > 3 µmol/kg | – | – | – |
| 7.21 | 5.41 | 98 | 8.22 | NC[C@H]1C[C@@H](c2cccc(O)c2)Cc2c1ccc(O)c2O (relative stereo) [Example 42] | – | – | – | – |
| 6.19 | 5.49 | 63 | 6.17 | NCC1CC2(CCCCCC2)Cc2c1ccc(O)c2O (stereo not shown) [Example 193] | – | – | – | – |
